Counter-ions that a name gives are not always drawn.
Key:
[1] = tested on: Angiotensin I; experiment: Effect of present compounds against hypertensive activity of angiotensin I in rats, oral administration; format: in vivo, Male rats (Sprague-Dawley); conditions: rat, oral 13.8 μM/kg, angiotensin I 300 ng/kg i.v., corrected by angiotensin II reaction; for Percent Inhibition against Hypertensive Reaction by Angiotensin I, After 20 min.: 20 min after administration; for Percent Inhibition against Hypertensive Reaction by Angiotensin I, After 60 min.: 60 min after administration; for Percent Inhibition against Hypertensive Reaction by Angiotensin I, After 120 min.: 120 min after administration
Protocol: Effect of Present Compounds against Hypertensive Activity of Angiotensin I
Male rats (Sprague-Dawley) weighing 250 g to 350 g which were fed under free access to drinking water and feeds were used as experimental animals. The rats were anesthetized with intraperitoneal administration of pentobarbital sodium (50 mg/kg) on the day before the test day and a polyethylene tube was inserted into each of the femoral artery for measurement of blood pressure and the femoral vein for injection of angiotensin I and II, and then the tubes were fixed.
On the test day, an average blood pressure in the control phase was recorded on an electric hemodynamometer (MP-4T model manufactured by Nippon Koden, Japan) and thereafter angiotensin I and then angiotensin II were injected through the femoral vein at a dose of 300 ng/kg and 100 ng/kg respectively, to measure the hypertensive activity. Then, 13.8 μM/kg of the compound of this invention was administered orally as an aqueous solution or an aqueous gum arabic suspension, and 20, 60 and 120 minutes after the administration, angiotensin I and II were injected repeatedly to trace hypertensive reactions. In calculating the percent inhibition to the hypertensive activity of angiotensin I, the percent inhibitory value was corrected based on the variation with time in the hypertensive reaction by angiotensin II.

[2] = molecular target: T1, Angiotensin I Converting Enzyme (ACE) (Oryctolagus cuniculus, UniProt P12822); experiment: Inhibition of Angiotensin I Converting Enzyme (ACE), substrate hippuryl-L-histidyl-L-leucine (HHL), hippuric acid produced; format: biochemical; conditions: pH 8.3, 37° C., one hour, read-out: Inhibitory Activity on ACE; for inhibition at 1 µM: Concentration 1 μM; for inhibition at 10 µM: Concentration 10 μM
T1 sequence (P12822 34-1310): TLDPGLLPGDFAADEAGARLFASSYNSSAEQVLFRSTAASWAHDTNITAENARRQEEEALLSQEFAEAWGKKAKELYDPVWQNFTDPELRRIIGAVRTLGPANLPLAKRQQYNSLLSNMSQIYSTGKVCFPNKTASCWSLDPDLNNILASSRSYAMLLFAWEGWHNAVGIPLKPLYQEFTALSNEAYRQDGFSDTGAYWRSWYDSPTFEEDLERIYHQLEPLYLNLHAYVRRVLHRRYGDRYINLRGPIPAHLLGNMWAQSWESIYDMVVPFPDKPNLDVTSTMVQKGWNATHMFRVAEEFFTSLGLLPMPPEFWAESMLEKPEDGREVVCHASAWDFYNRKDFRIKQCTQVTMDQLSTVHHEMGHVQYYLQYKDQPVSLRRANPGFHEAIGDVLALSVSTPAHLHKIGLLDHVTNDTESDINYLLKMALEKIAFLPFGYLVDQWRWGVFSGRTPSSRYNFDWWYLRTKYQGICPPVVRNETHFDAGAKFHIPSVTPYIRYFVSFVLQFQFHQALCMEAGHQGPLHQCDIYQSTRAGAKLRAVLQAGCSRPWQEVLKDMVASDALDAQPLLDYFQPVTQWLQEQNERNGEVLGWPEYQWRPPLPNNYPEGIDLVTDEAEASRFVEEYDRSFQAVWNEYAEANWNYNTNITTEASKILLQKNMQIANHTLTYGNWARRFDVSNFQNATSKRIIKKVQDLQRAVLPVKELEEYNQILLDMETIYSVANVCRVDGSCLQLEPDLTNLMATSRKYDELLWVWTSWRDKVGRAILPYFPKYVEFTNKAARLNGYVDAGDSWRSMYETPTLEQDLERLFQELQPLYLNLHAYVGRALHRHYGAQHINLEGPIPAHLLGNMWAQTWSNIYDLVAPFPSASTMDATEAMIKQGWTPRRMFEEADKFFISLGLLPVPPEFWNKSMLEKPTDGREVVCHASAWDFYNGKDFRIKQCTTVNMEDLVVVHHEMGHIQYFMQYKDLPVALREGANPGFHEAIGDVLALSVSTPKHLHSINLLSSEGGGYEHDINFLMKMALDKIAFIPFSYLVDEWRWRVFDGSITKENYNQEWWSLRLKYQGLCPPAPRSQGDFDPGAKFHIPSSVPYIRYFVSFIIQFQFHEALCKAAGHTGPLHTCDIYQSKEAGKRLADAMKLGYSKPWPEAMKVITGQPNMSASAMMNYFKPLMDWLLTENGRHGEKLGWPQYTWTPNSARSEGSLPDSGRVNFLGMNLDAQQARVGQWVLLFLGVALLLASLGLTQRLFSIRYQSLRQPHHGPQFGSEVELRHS
Protocol: Inhibitions of Angiotensin I Converting Enzyme (ACE) by the Compounds of this Invention. The experiment was conducted in accordance with a modification of the method described by Cushman et al. [Biochemical Pharmacology, Vol. 20, 1637(1971)]. That is, using hippuryl-L-histidyl-L-leucine(HHL) as the substrate, the ACE inhibitory activity was determined in terms of percent inhibition on the amount of hippuric acid produced by ACE when the present compound was added. […] In this experiment, a potassium phosphate buffer solution containing dimethyl sulfoxide at a concentration equal to that of the test solution was used as a control. After incubating the solution at 37° C. for one hour, 150 μl of 1N hydrochloric acid was added to the solution to terminate the reaction. After 1 ml of ethyl acetate was added, the solution was centrifuged at 3000 r.p.m. for 10 minutes. A 0.5 ml aliquot was separated from the ethyl acetate layer and dried at a temperature below 50° C. under nitrogen gas streams. The residue was mixed with 5 ml of 1M aqueous sodium chloride and the mixture was subjected to colorimetry at a wavelength of 228 nm.

In the case of `CCOC(=O)[C@H](CCc1ccc(OC)c(OC)c1)N[C@@H](C)C(=O)N(CC(=O)O)C1Cc2ccccc2C1.Cl` [Example 15, N-[1-(S)-ethoxycarbonyl-3-(3,4-dimethoxyphenyl)propyl]-L-alanyl-N-(indan-2-yl)glycine hydrochloride], the “Percent Inhibition against Hypertensive Reaction by Angiotensin I, After 20 min.” value (shortened to “Percent Inhibition … After 20 min.”) [1] is reported as 84%, the “Percent Inhibition against Hypertensive Reaction by Angiotensin I, After 60 min.” value (“Percent Inhibition … After 60 min.” for short) [1] is reported as 80% and the “Percent Inhibition against Hypertensive Reaction by Angiotensin I, After 120 min.” value (“Percent Inhibition … After 120 min.” below) [1] is reported as 65%.

`CCCOC(=O)C(CCc1ccccc1)N[C@@H](C)C(=O)N(CC(=O)O)C1Cc2ccccc2C1.Cl` (stereo partly drawn) [Example 7, N-(1-propoxycarbonyl-3-phenylpropyl)-L-alanyl-N-(indan-2-yl)glycine hydrochloride] was tested, and the inhibition at 1 µM [2] was 91%, the inhibition at 10 µM [2] was 97% and the “Percent Inhibition … After 20 min.” value [1] was 84%. The “Percent Inhibition … After 60 min.” value [1] was 91% and the “Percent Inhibition … After 120 min.” value [1] was 96%.

`CC(C)OC(=O)C(CCc1ccccc1)N[C@@H](C)C(=O)N(CC(=O)O)C1Cc2ccccc2C1.Cl` (stereo partly drawn) [Example 9, N-(1-isopropoxycarbonyl-3-phenylpropyl)-L-alanyl-N-(indan-2-yl)glycine hydrochloride] was tested, and the inhibition at 1 µM [2] was 72%, the inhibition at 10 µM [2] was 95% and the “Percent Inhibition … After 20 min.” value [1] was 88%. For the same compound, the “Percent Inhibition … After 60 min.” value [1] was 71% and the “Percent Inhibition … After 120 min.” value [1] was 51%.

Work on `C[C@H](N[C@@H](CCc1ccccc1)C(=O)O)C(=O)N(CC(=O)O)C1Cc2ccccc2C1` [Example 19, N-(1-(S)-carboxyl-3-phenylpropyl)-L-alanyl-N-(indan-2-yl)glycine] yielded an inhibition at 1 µM [2] of 95% and an inhibition at 10 µM [2] of 98%.

Compound `CCCCOC(=O)C(CCc1ccccc1)N[C@@H](C)C(=O)N(CC(=O)O)C1Cc2ccccc2C1` (stereo partly drawn) [Example 8, N-(1-butoxycarbonyl-3-phenylpropyl)-L-alanyl-N-(indan-2-yl)glycine hydrochloride] has an inhibition at 1 µM [2] of 69% and an inhibition at 10 µM [2] of 99%.

With `CCOC(=O)C(CCc1ccccc1)N[C@@H](C)C(=O)N(CC(=O)O)C1Cc2ccccc2C1.Cl` (stereo partly drawn) [Example 1, N-(1-ethoxycarbonyl-3-phenylpropyl)-L-alanyl-N-(indan-2-yl)glycine hydrochloride] the inhibition at 1 µM [2] was 87%, the inhibition at 10 µM [2] was 97% and the “Percent Inhibition … After 20 min.” value [1] was 93%. For the same compound, the “Percent Inhibition … After 60 min.” value [1] was 88% and the “Percent Inhibition … After 120 min.” value [1] was 77%.

From patent publication US4822818A, “Bicycle compounds, their production and use” (Takeda Chemical Industries, Ltd., priority 1980, dated 1989)
